{"source": "patent US10000765B2", "about": "“Gene encoding cytochrome P450, and use thereof” (NATIONAL INSTITUTE OF AGROBIOLOGICAL SCIENCES, priority 2011, dated 2018)", "key": {"[1]": {"test_system": "CYP72A31-overexpressing rice (K31-4-6-2)", "assay": "Drug sensitivity test on gellan gum medium, CYP72A31-overexpressing rice", "format": "in vivo, Oryza sativa", "conditions": "for CK ratio (%): plant height compared with drug-free medium", "experimental": "Next, 1.6 g of Hoagland's mix (Sigma-Aldrich Corporation) and 3 g of Gelrite (Wako Pure Chemical Industries, Ltd.) were suspended in 1 L of distilled water. Then, the mixture was dissolved and heated in a microwave. After that, the mixture was cooled to 50 to 60 degree C., and BS was added at a final concentration of 1 μM. This mixture was dispensed into 30-mL tubular bottles at 15 mL to prepare a gellan gum medium. Next, CSSL rice paddies were soaked in 0.5% sodium hypochlorite for about 20 minutes, and were then washed well with water. These paddies were soaked in distilled water, and kept at 27 degree C. for 3 to 5 days for germination. Germinating seeds were softly planted in sprout-side up on the gellan gum medium. These samples, together with a beaker filled with distilled water, were placed in a transparent case, which was then covered with a clear-plastic wrap. These samples were grown at 27 degree C. under fluorescent light illumination (14 hours of a light period and 10 hours of a dark period) for 7 to 9 days.\nAccording to the method of Example 1, a gellan gum medium containing a test drug at a concentration of 0.01, 0.1, 1, or 10 μM was prepared. Rice seeds were sterilized, germinated, seeded in the medium, and cultivated."}, "[2]": {"test_system": "Nipponbare calluses overexpressing Kasalath-derived or Nipponbare-derived CYP72A32 or CYP72A33", "assay": "Callus growth test on BS-containing medium, CYP72A32 or CYP72A33 overexpression constructs", "format": "cell-based, Oryza sativa", "source_text": "According to Example 5, an HptII::35Spro::Kasalath CYP72A32::Tnos vector plasmid (pCAMBIA1390-KasCYP72A32, a kasCYP72A32 overexpression construct), an HptII::35 Spro::Kasalath CYP72A33::Tnos vector plasmid (pCAMBIA1390-KasCYP72A33, a kasCYP72A33 overexpression construct), an HptII::35Spro::Nipponbare CYP72A32::Tnos vector plasmid (pCAMBIA1390-nbCYP72A32, an nbCYP72A32 overexpression construct), or an HptII::35Spro::Nipponbare CYP72A33::Tnos vector plasmid (pCAMBIA1390-nbCYP72A33, an nbCYP72A33 overexpression construct) was introduced into a rice variety (a cultivar: Nipponbare) by using an Agrobacterium method. Transformed calluses selected with 50 ppm hygromycin were isolated, and transplanted onto a bispyribac-sodium (BS)-containing medium to examine callus growth."}, "[3]": {"test_system": "rice calluses transformed with pSTARA-sGFP", "assay": "Selection of drug-resistant callus in N6D medium, pSTARA-sGFP", "format": "cell-based, Oryza sativa", "conditions": "N6D medium containing 0.25 μM BS", "experimental": "Rice transformed with pCAMBIA1390-KasCYP72A31 was used to examine whether a Kasalath-derived CYP72A31 gene was able to be used as a selection marker for transformation with BS as a selection reagent. According to Example 5, rice (Nipponbare) was transformed with pCAMBIA1390-KasCYP72A31 or pSTARA-sGFP by using an Agrobacterium method.\nRice (Nipponbare) calluses transformed with pCAMBIA1390-KasCYP72A31 were cultured for 4 weeks in an N6D medium containing 0.1 or 0.25 μM BS or an N6D medium containing 50 ppm hygromycin to select drug-resistant calluses. Also, rice calluses transformed with pSTARA-sGFP were selected in a similar manner in an N6D medium containing 0.25 μM BS."}, "[4]": {"test_system": "Arabidopsis thaliana K31-4-2 and K31-6-5", "assay": "Growth test in BS-containing medium, Arabidopsis transformed with Kasalath-derived CYP72A31", "format": "in vivo", "conditions": "day 10 from onset of cultivation, compared to NT", "source_text": "In this Example, Agrobacterium as prepared in Example 4 was used to introduce HptII::35Spro::Kasalath CYP72A31::Tnos vector plasmid (pCAMBIA1390-KasCYP72A31), HptII::35Spro::Kasalath CYP72A32::Tnos vector plasmid (pCAMBIA1390-KasCYP72A32), or HptII::35Spro::Kasalath CYP72A33::Tnos vector plasmid (pCAMBIA1390-KasCYP72A33) into Arabidopsis thaliana (ecotype: Col-0) by using a floral-dip method. The floral-dip method followed a standard method. […] K31-4-2 and K31-6-5 were selected as fixed lines derived from pCAMBIA1390-KasCYP72A31; K32-1-1, K32-3-1, and K32-5-1 were selected as fixed lines derived from pCAMBIA1390-KasCYP72A32; and K33-1-3 and K33-2-4 were selected as fixed lines derived from pCAMBIA1390-KasCYP72A33. Their seeds were seeded in a medium containing each concentration of BS, and cultivated for 10 days. FIGS. 16A and 16B illustrate the results.\nNext, 15 seeds for each of non-transformed Arabidopsis thaliana (NT, which is denoted by “Col-0” in FIGS. 17A-17C) and transformed plant bodies (K31-4-2 which is denoted by “K31oe-4-2” in FIGS. 17A-17C and K31-6-5 which is denoted by “K31oe-6-5” in FIGS. 17A-17C) were cultivated on a medium containing each concentration of BS. […]"}}}
{"smiles": "COc1cc(OC)nc(Oc2cccc(Oc3nc(OC)cc(OC)n3)c2C(=O)O)n1", "note": "[BS, bispyribac sodium]", "values": [{"measurement": "Resistance of transformed rice to the drug", "setting": "[1]; Table 4 and FIG. 25", "value": "exhibited resistance"}, {"measurement": "Ratio of sensitivity", "setting": "[1]; maximum drug concentration for CK ratio of 40% or more, K31-4-6-2 / wild-type rice", "value": ">100"}, {"measurement": "CK ratio (%)", "setting": "[1]; K31-4-6-2, drug 0.01 μM", "value": 106, "unit": "%"}, {"measurement": "CK ratio (%)", "setting": "[1]; K31-4-6-2, drug 0.1 μM", "value": 97, "unit": "%"}, {"measurement": "CK ratio (%)", "setting": "[1]; K31-4-6-2, drug 1 μM", "value": 103, "unit": "%"}, {"measurement": "CK ratio (%)", "setting": "[1]; K31-4-6-2, drug 10 μM", "value": 74, "unit": "%"}, {"measurement": "Callus growth", "setting": "[2]", "value": "not grown"}, {"measurement": "Selection efficiency (ratio of the resulting transformed calluses/all calluses)", "setting": "[3]", "value": 82, "unit": "%"}, {"measurement": "BS sensitivity (germinated seeds, emerging of true leaves, fresh weight of above-ground part)", "setting": "[4]", "value": "significantly lower BS sensitivity compared to NT"}]}
